{"source": "paper PMC9448382", "about": "“Fluorosulfate-containing pyrazole heterocycles as selective BuChE inhibitors: structure-activity relationship and biological evaluation for the treatment of Alzheimer’s disease” (Journal of Enzyme Inhibition and Medicinal Chemistry, 2022)", "key": {"[1]": {"target": "T1, recombinant human AChE (hAChE) (Homo sapiens, UniProt P22303)", "T1 construct": "purchased Sigma C1682", "T1 sequence (P22303 32-614)": "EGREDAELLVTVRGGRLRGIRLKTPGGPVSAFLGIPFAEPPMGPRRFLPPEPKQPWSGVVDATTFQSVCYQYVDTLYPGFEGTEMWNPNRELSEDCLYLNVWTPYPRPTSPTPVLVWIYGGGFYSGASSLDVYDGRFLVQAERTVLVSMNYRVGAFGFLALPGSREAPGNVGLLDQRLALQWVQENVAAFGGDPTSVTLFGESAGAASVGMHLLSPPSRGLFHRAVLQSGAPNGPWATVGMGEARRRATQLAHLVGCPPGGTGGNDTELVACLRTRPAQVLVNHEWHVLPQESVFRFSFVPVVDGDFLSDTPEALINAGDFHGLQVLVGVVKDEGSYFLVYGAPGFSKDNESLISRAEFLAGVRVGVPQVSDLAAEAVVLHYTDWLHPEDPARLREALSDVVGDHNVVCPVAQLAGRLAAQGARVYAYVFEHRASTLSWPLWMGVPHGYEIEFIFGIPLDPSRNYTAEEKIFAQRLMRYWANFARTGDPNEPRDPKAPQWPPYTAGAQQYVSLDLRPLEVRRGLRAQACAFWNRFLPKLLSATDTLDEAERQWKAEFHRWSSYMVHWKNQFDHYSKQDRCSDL", "assay": "hAChE inhibition assay", "assay_type": "biochemical", "description": "(§1) With 0.1 M pH 8 PBS, a DTNB solution (5 μM) was produced. Dissolve the test compound in DMSO to prepare a concentration of 2 × 10^−1 M stock solution. The solution was diluted in ethanol to five concentrations of 200, 100, 10, 1 and 0.1 μM, respectively. Measurement was carried out with 96-well plates, add 40 μL buffer, 10 μL test compound at a series of concentrations, and 10 μL AChE/BuChE in sequence. The mixture was then incubated at 37 °C for 10 min. Then add 20 μL DTNB, incubation at 37 °C for 10 min. […] For the blank value, 10 μL of ethanol was used instead of the inhibitor solution. The percentage of enzyme activity and the logarithm of compound concentration were used to express the inhibitory activity of compounds. IC50 was calculated by SPSS17.0."}, "hBuChE from human serum": {"target": "T2, hBuChE from human serum (Homo sapiens, UniProt P06276)", "T2 construct": "purchased Sigma B4186; host or cells: human serum (per result head)", "T2 sequence (P06276 29-602)": "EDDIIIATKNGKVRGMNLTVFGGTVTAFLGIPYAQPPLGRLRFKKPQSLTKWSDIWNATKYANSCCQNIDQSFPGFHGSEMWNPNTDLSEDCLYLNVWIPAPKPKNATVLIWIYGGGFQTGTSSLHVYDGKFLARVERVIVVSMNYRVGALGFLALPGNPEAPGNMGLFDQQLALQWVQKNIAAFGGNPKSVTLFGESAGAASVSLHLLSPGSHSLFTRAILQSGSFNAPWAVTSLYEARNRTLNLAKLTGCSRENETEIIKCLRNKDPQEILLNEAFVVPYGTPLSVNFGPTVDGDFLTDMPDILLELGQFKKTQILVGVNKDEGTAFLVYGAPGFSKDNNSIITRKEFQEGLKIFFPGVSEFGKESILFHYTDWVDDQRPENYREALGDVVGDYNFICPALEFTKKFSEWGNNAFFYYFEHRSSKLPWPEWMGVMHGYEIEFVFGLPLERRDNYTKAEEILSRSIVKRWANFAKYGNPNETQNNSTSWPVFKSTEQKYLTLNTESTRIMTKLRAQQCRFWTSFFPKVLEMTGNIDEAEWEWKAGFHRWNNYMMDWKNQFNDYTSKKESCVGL", "assay": "hBuChE inhibition assay", "assay_type": "biochemical", "details": "mean ± SEM", "description": "as §1"}, "ICR mice": {"tested_on": "ICR mice", "assay": "In vivo acute toxicity evaluation", "description": "A total of 20 mice weighing 20‒25 g (F: M = 1: 1) were randomly allocated into two groups: control (n = 10) and experimental (n = 10). […] For two weeks, the mice's behaviour, appearance, and body weight changes were examined and documented. GraphPadPrism8.0 software was used to compare and summarise the body weights of the mice in the control and experimental groups."}, "male ICR mice": {"tested_on": "male ICR mice", "details": "Day 3 to Day 14", "quoted_text": "The National Institutes of Health Guide for the Care and Use of Laboratory Animals was followed for all experiments. The Animal Care and Use Committee of Anhui Medical University adopted the Measures for the Care and Treatment of Laboratory Animals. In Anhui Medical University's animal centre, male ICR mice were employed (Hefei). […] Throughout all of the experiments, the room's ambient temperature and relative humidity (50%) remained constant. […] 8‒10 animals were used in each study group. The experimental time was from 08: 00 to 14: 00, and the mice were sacrificed by cervical dislocation shortly after the experiment ended. […] Aβ1–42 aggregation was induced by dissolving the Aβ1–42 peptide in DMSO as a stock solution of 5 mM and incubating it in saline at a final concentration of 2 mg/mL for 24 h at 37 °C."}, "[2]": {"tested_on": "human normal liver cells LO2", "assay": "Cytotoxicity MTT assay, L02 cells", "details": "50 μM, 24 h", "description": "Human hepatoblastoma cells HepG2 and human normal liver cells LO2 cells were cultured at 37 °C in DMEM containing 10% foetal bovine serum, 100 U/mL penicillin, and […] streptomycin in a humidified incubator with 5% CO2. The methyl thiazolyl tetrazolium (MTT) assay was used to assess cell cytotoxicity. In a 96-well plate, HepG2 cells and LO2 cells were injected at 1 × 10^4 cells per well. The cells were treated with various substances that were diluted in DMEM for 24 h after being cultivated for 24 h. The cells were then treated for 4 h with 20 µL 0.5 mg/mL MTT reagent. The cell culture was withdrawn after 4 h, and 150 µL DMSO were added to dissolve the formazan. […] Three independent tests were used to calculate cell viability.\nBlank: cultured with fresh medium only."}, "eqBuChE": {"target": "T3, eqBuChE (Equus caballus, UniProt P81908)", "T3 construct": "BuChE from horse serum (C4290-1KU; Sigma); purchased Sigma C4290-1KU; host or cells: horse serum", "T3 sequence (P81908 whole entry)": "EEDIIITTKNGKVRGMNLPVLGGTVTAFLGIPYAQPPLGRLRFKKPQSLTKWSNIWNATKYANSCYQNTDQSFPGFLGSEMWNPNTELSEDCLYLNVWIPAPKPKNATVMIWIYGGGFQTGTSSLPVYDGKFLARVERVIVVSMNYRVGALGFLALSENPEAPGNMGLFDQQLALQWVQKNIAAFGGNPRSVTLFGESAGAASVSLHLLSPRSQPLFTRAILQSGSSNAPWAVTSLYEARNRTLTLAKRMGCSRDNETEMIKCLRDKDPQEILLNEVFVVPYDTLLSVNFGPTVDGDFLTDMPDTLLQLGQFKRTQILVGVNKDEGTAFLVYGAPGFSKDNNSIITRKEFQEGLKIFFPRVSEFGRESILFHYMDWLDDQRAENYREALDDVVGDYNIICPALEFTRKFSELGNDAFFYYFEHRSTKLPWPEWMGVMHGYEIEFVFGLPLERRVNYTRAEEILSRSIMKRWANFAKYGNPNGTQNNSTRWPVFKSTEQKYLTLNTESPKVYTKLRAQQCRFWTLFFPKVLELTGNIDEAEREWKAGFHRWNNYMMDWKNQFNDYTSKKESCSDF", "assay": "Kinetic study of eqBuChE inhibition", "assay_type": "biochemical, horse", "description": "The same test settings were used for kinetic studies, with six concentrations of substrate (0.1‒1 mM) and four concentrations of inhibitor (0‒1.6 µM). The effect of different doses of compound K3 on BuChE catalytic activity at 37 °C was also investigated. The final concentration of enzyme was changed (0‒0.18 U/mL) under the same test conditions as indicated in the assay methodology. For the assessment of reversible and irreversible inhibitor binding at enzyme, different concentrations of compound K3 (0, 0.4, 0.8, and 1.6 µM) were utilised."}, "AChE from electric eel": {"target": "T4, AChE from electric eel (Electrophorus electricus, UniProt O42275)", "T4 construct": "AChE from electric eel (C3389-500UN; Sigma); purchased Sigma C3389-500UN", "T4 sequence (O42275 24-633)": "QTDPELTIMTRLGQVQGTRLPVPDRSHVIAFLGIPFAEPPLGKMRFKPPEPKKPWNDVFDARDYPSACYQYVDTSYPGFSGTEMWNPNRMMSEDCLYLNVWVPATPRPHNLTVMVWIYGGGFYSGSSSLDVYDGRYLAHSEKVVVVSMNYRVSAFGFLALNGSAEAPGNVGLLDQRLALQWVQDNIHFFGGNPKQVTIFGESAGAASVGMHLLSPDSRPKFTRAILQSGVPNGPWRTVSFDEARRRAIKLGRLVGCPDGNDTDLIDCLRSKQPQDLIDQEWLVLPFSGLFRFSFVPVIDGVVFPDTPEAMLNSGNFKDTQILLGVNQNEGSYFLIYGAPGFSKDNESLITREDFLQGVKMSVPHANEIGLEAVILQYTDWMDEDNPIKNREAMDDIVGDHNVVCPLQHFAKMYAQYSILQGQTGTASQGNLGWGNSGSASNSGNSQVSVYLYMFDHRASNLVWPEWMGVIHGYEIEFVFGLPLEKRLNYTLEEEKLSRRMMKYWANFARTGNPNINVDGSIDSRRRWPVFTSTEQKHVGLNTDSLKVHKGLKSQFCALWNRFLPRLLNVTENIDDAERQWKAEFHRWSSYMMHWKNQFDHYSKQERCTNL", "assay": "EeAChE inhibition assay (Ellman's method)", "assay_type": "biochemical", "details": "read-out: AChE % inhibition at 20 µM, 20 µM, na = no inhibitory activity at 20 µM", "description": "According to Ellman's method, assays were carried out on AChE from electric eel (C3389-500UN; Sigma) and BuChE from horse serum (C4290-1KU; Sigma). On a final volume of 500 μL, the experiment was carried out in 48-well plates. EeAChE or eqBuChE, 0.036 U/mL, and 0.1 M pH 8 phosphate buffer were added to each well. At 37 °C, they were pre-incubated for 20 min at various chemical concentrations. […] Along with the enzymatic breakdown of ACh or BuCh, the DTNB creates the yellow anion 5-thio-2-nitrobenzoic acid. In a Biotek Synergy HTX Multi-Mode reader, changes in absorbance were detected at 410 nm. Inhibition curves were used to calculate the IC50 values (log inhibitor concentration vs percent of inhibition). The same conditions were used in a control experiment without the inhibitor, and the blank comprised buffer, DMSO, DTNB, and substrate.\nThe IC50 values were calculated by SPSS 17.0."}, "[3]": {"details": "ICR mice, intragastric, 1.0 g/kg, 14 days"}}, "note": "Entries after “also recorded” stand apart in the source; their conditions may differ."}
{"smiles": "O=S(=O)(F)Oc1cc(-c2ccccc2)nn1-c1ccc(Cl)cc1", "note": "[Compound K3]", "values": [{"measurement": "inhibition at 20 µM", "setting": "[1]", "value": "31.6 ± 5.74", "unit": "%"}, {"measurement": "IC50", "setting": "hBuChE from human serum", "value": "6.59 ± 3.54", "unit": "µM"}, {"measurement": "differences in body weight changes vs vehicle group", "setting": "ICR mice; [3]", "value": "not significant"}, {"measurement": "tolerability in single-dose acute toxicity assay", "setting": "ICR mice; [3]", "value": "well tolerated"}, {"measurement": "tolerated dose", "setting": "ICR mice; mice, in vivo safety experiments", "value": 1000, "unit": "mg/kg"}, {"measurement": "effect on body weight during administration", "setting": "male ICR mice; 10 mg/kg po", "value": "no effect on body weight increase"}, {"measurement": "effect on Aβ1–42-induced cognitive dysfunction (MWM)", "setting": "male ICR mice; Aβ1–42 10 µg icv, K3 10 mg/kg po, donepezil 15 mg/kg po", "value": "significantly improved"}, {"measurement": "cell survival rate", "setting": "[2]", "value": 94.4, "unit": "%"}, {"measurement": "reversibility of BuChE inhibition", "setting": "eqBuChE; K3 0, 0.4, 0.8, 1.6 μM, enzyme 0‒0.18 U/mL", "value": "reversible"}, {"measurement": "type of BuChE inhibition", "setting": "eqBuChE; Lineweaver-Burk plots", "value": "mixed and non-competitive; also recorded: mixed, and non-competitive"}, {"measurement": "Ki", "setting": "eqBuChE; Lineweaver-Burk secondary plots, read-out: dissociation constant Ki", "value": 0.77, "unit": "µM"}, {"measurement": "inhibition at 20 µM", "setting": "AChE from electric eel", "value": "26.3 ± 1.4", "unit": "%"}]}
